Common to all, as to experiment: DTP human tumour cell line panel, 48 h
The subject of test [1] is ACHN renal.
The test system of test [2] is EKVX NSCLC.
For test [3], the system named is NCI-H226 lung.
Test [4] relates to DU-145 prostate.
The test system of test [5] is SW-620 colon.
In test [6] the test system is NCI-H522 lung.
Test [7] concerns A549 NSCLC.

The structures appear in SMILES notation. Several values for one entry are separate records, joined by “and”; a condition that tells them apart may be missing. Equal entries are not always repeated.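 96-well plates; 48 h exposure; 5 concentrations. Endpoints by linear interpolation between flanking doses. Not reached: highest tested concentration assigned. At the GI50, growth is halved. TGI marks complete inhibition of growth.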

We go through eight compounds from PubChem BioAssay (NCI).

On to `COc1ccccc1-n1cnc(N)c1C(=O)c1cc(OC)c(OC)c(OC)c1`, for which the GI50 (commonly the concentration giving 50% growth inhibition) was 5.19 µM in test [1]; 7.55 µM in test [2]; 4.34 µM in test [3]; 6.65 µM in test [4]; 3.25 µM in test [5]; 1.94 µM in test [6]. Besides, the GI50 in test [7] is 4.42 µM. For the same compound, the concentration for total growth inhibition (TGI) in test [1], in test [2], in test [3], in test [4], in test [5] and in test [6] was more than 100 µM each time. Besides, the TGI (in general, the concentration at which net growth stops) in test [7] is more than 100 µM.
Consider `Cc1cc2c(cc1Cl)SC(N(c1ccccc1Cl)S(=O)(=O)c1ccc(Br)s1)=NS2(=O)=O`, for which the GI50 in test [1] is 22.4 µM; in test [2], 21.9 µM; in test [3], 23.1 µM; in test [4] it was 14.5 µM; in test [5], 14.9 µM; in test [6], 13.5 µM. Moreover, in test [7], the GI50 was 25.7 µM. In addition, the TGI in test [1] is 84.7 µM; in test [2], 75.5 µM; in test [3] it was more than 100 µM; in test [4], 33 µM; in test [5] it was 30.4 µM; in test [6], 31.7 µM. For the same compound, the TGI in test [7] was more than 100 µM.
`O=CC(OC(=O)c1ccccc1)C(OC(=O)c1ccccc1)C(COC(c1ccccc1)(c1ccccc1)c1ccccc1)OC(=O)c1ccccc1` (configuration not stated): the GI50 was 11.4 µM in test [1]; 19.6 µM in test [2]; 18.9 µM in test [3]; 15.3 µM in test [4]; 5.13 µM in test [5]; 4.72 µM in test [6]. Further, the GI50 in test [7] was 22.1 µM. Further, the total growth inhibition concentration (TGI) in test [1] came out at 24 µM; in test [2], 61.5 µM; in test [3], 64.4 µM; in test [4] it was 28.6 µM; in test [5] it was 20.7 µM; in test [6] it was 18.7 µM. Further, in test [7], the TGI amounted to 61.7 µM.
With `O=C(COc1ccc(/C=C2\Oc3ccc4ccccc4c3C2=O)cc1)c1ccc([N+](=O)[O-])cc1`, the GI50 in test [1] is 28.3 µM; in test [2] it was 47.6 µM; in test [3] it was 16.7 µM; in test [4], 10.9 µM; in test [5], 3.88 µM; in test [6] it was 2.04 µM. Further, the GI50 in test [7] was 45 µM. In addition, the TGI is 88.2 µM in test [1]; more than 100 µM in test [2]; 39.1 µM in test [3]; 23.1 µM in test [4]; 14.1 µM in test [5]; 5.41 µM in test [6]. In test [7], the TGI was more than 100 µM.
Turning to `CC(=O)N[C@H](C)[C@@H](O)[C@@H](C)[C@@H]1OC(=O)/C=C/C=C(C)\C=C\[C@]2(C)C[C@@H](NS(C)(=O)=O)C=C[C@@H]2/C=C(C)/C=C/[C@H]1C`, the concentration for 50% growth inhibition (GI50) in test [1] is 0.0125 µM; in test [3], 0.0156 µM and 0.00593 µM; in test [5] it was 0.00821 µM and 0.0135 µM; in test [6], 0.0251 µM and 0.0451 µM; in test [7], 0.0159 µM and 0.00435 µM. The TGI in test [1], in test [2], in test [3], in test [4], in test [5] and in test [6] was more than 43.5 µM each time. Besides, in test [7], the concentration for total growth inhibition (TGI) was more than 43.5 µM.
On to `O=C1/C(=C/c2cccnc2)SC(=S)N1Cc1ccco1`, for which the concentration for total growth inhibition (TGI) in test [1] was more than 48.9 µM; in test [2], more than 100 µM; in test [3], 92 µM; in test [4], 9.22 µM; in test [5], more than 100 µM; in test [6], 4.1 µM. In test [7], the TGI is more than 100 µM.
`O=C1Cc2c(-c3ccccc3)cc(-c3ccccc3)nc2-c2ccccc2N1`: the GI50 in test [1] is 4.04 µM. Also, the TGI in test [1] was 19 µM; in test [2], 80.3 µM; in test [3], 46.9 µM; in test [4], 20.3 µM; in test [5] it was 82.5 µM; in test [6], 30.2 µM. For the same compound, the TGI in test [7] was determined as 26.6 µM.
`C[C@@H](Nc1nc(N[C@H](C)C(F)(F)F)nc(-c2cccc(Cl)n2)n1)C(F)(F)F`: the GI50 in test [1] was 36.4 µM; in test [2], 70.7 µM; in test [3], 35.6 µM; in test [4], 41.6 µM; in test [5], more than 100 µM; in test [6], 30 µM. Besides, the GI50 in test [7] is 50.3 µM. Moreover, the total growth inhibition concentration (TGI) in test [1], in test [2], in test [3], in test [4], in test [5] and in test [6] was more than 100 µM each time. In test [7], this compound had a concentration for total growth inhibition (TGI) of more than 100 µM.
